Measurements from US20230285570A1, “THERAPEUTICALLY USEFUL CURE-PRO MOLECULES FOR E3 LIGASE MEDIATED DEGRADATION OF PROTEINS, AND METHODS OF MAKING AND USING THEM” (CORNELL UNIVERSITY, priority 2020, published 2023).

Target: c-MYC (Homo sapiens, UniProt P01106)
Test: Summary of C-MYC degradation by CURE-PRO pairs, estimated from Western Blot or WES
Assay type: cell-based
Design: endogenous in cells; host or cells: HT29
Conditions: for Degradation of C-MYC, combination with MDM2 ligand 8310: Table 11, aromatic 1,2-diol MYC ligand + 8310; for Degradation of C-MYC, combination with VHL ligand 8298: Table 12, aromatic 1,2-diol MYC ligand + 8298; for Degradation of C-MYC, combination with CRBN ligand 8048: Table 10, aromatic 1,2-diol MYC ligand + 8048; for Degradation of C-MYC, combination with CRBN ligand 8049: Table 10, aromatic 1,2-diol MYC ligand + 8049
Protocol: Namalwa, Ramosm HeLa, MCF7, or HT29 HCT116 cells (2.5-3×10^6) were treated for 24 hours with the indicated compounds solubilized in DMSO. The cells were washed in ice-cold PBS and were then lysed in RIPA lysis buffer (150 mM NaCl, 5 mM EDTA, 1% NP-40, 0.5% sodium deoxycholate, 0.1% SDS, 50 mM Tris, pH 8.0.) with Roche protease inhibitor complete cocktail and phosphatase inhibitors (10 mM sodium fluoride, 10 mM sodium pyrophosphate, 1 mM sodium orthovanadate and 20 mM β-glycerophosphate). The total protein concentrations were determined by Bradford Protein Assay (Pierce) and 10-20 μg of protein was loaded onto 4-15% Tris-Glycine gradient gels (Biorad). After standard gel electrophoresis, the separated proteins were transferred to PVDF membrane by wet transfer. The immunoblots were then blocked for 1 hour in 5% skim milk in TBST or 5% BSA in TBST, according to manufacturer's instructions, before an overnight incubation at 4° C. with indicated antibodies and membranes. Membranes were then incubated with the appropriate horseradish peroxidase-conjugated secondary antibodies (1:5,000 dilution) for 1 h at room temperature and the bands were visualized using the Clarity Max Western ECL Substrate (Biorad) and the ChemiDoc Imaging System (Biorad). Signal was detected with ECL Western Blotting Substrate (Pierce) and X-ray film processed with a Konica SRX-101 X-ray film processor or captured by Bio-Rad's Chemidoc Imaging system.
WES Simple analysis was performed on WES system (ProteinSimple-Biotechne) according to the manufacturer's instructions. Total protein concentrations of cell lysates were determined by the Pierce BCA kit (Thermo Fisher). 3 μL of 0.3 μg/μL of the protein lysate was loaded onto a 12- to 230-kDa WES assay plate (ProteinSimple) where 300 nL sample was withdrawn through a capillary, subjected to electrophoretic separation of proteins by size, and followed by the simultaneous, HRP-based detection of proteins using the Anti-Rabbit Detection Module (Proteinsimple: #DM-001). The electropherograms were checked then the automatic peak detection was manually corrected if it was required.
A black check mark indicates efficacy of 30% to 70% or higher protein degradation.

Sequence of c-MYC (P01106 whole entry): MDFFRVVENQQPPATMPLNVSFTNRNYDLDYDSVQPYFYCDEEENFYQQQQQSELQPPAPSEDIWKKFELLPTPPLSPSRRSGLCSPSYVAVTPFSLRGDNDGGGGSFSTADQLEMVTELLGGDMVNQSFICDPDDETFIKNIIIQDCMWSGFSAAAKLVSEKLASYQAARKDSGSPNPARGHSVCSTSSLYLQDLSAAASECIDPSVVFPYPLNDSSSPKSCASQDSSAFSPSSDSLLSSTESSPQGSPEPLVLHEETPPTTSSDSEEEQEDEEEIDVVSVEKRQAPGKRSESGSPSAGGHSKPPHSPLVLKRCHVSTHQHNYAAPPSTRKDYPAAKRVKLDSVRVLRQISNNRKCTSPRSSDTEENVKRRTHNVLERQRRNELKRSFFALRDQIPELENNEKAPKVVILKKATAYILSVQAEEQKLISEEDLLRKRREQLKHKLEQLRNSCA

O=C(NCc1cccc(O)c1O)c1ccc(Nc2ccc([N+](=O)[O-])c3nonc23)cc1 [MYC- N18]
Degradation of C-MYC, combination with MDM2 ligand 8310: √ (A black check mark indicates efficacy of 30% to 70% or higher protein degradation)

O=C(NCCNC(=O)c1ccccc1Nc1ccc([N+](=O)[O-])c2nonc12)c1ccc(O)c(O)c1 [MYC- N21]
Degradation of C-MYC, combination with MDM2 ligand 8310: √ (A black check mark indicates efficacy of 30% to 70% or higher protein degradation)

O=C(NCCNC(=O)c1cccc(O)c1O)c1ccccc1Nc1ccc([N+](=O)[O-])c2nonc12 [MYC- N22]
Degradation of C-MYC, combination with MDM2 ligand 8310: √ (A black check mark indicates efficacy of 30% to 70% or higher protein degradation)
Degradation of C-MYC, combination with MDM2 ligand 8312 (Table 11, aromatic 1,2-diol MYC ligand + 8312): √ (A black check mark indicates efficacy of 30% to 70% or higher protein degradation)

O=C(NCc1ccc(Cl)c(B(O)O)c1)c1ccccc1Nc1ccc([N+](=O)[O-])c2nonc12 [MYC-E18]
Degradation of C-MYC, combination with CRBN ligand 8046 (Table 7, aryl-boronic acid MYC ligand + 8046): √ (A black check mark indicates efficacy of 30% to 70% or higher protein degradation)

CCc1ccc(/C=C2\SC(=O)N(CCNC(=O)c3cccc(O)c3O)C2=O)cc1 [MYC-N08]
Degradation of C-MYC, combination with VHL ligand 8297 (Table 12, aromatic 1,2-diol MYC ligand + 8297): √ (A black check mark indicates efficacy of 30% to 70% or higher protein degradation)
Degradation of C-MYC, combination with VHL ligand 8298: √ (A black check mark indicates efficacy of 30% to 70% or higher protein degradation)

O=[N+]([O-])c1ccc(Nc2cccc(O)c2O)c2nonc12 [MYC-N11]
Degradation of C-MYC, combination with CRBN ligand 8048: √ (A black check mark indicates efficacy of 30% to 70% or higher protein degradation)

O=C(NCc1ccc(O)c(O)c1)c1ccccc1Nc1ccc([N+](=O)[O-])c2nonc12 [MYC-N15]
Degradation of C-MYC, combination with CRBN ligand 8048: √ (A black check mark indicates efficacy of 30% to 70% or higher protein degradation)
Degradation of C-MYC, combination with CRBN ligand 8049: √ (A black check mark indicates efficacy of 30% to 70% or higher protein degradation)

O=C(NCc1ccc(O)c(O)c1)c1ccc(Nc2ccc([N+](=O)[O-])c3nonc23)cc1 [MYC-N17]
Degradation of C-MYC, combination with VHL ligand 8298: √ (A black check mark indicates efficacy of 30% to 70% or higher protein degradation)

O=C(NCCN1C(=O)C/C(=C\c2ccc(F)cc2)C1=O)[C@H]1C[C@@H]2C[C@H]1[C@@H](O)[C@H]2O [MYC-N30]
Degradation of C-MYC, combination with CRBN ligand 8048: √ (A black check mark indicates efficacy of 30% to 70% or higher protein degradation)
Degradation of C-MYC, combination with CRBN ligand 8049: √ (A black check mark indicates efficacy of 30% to 70% or higher protein degradation)
